The values that follow come from patent US6461997B1, “Triazole sulfones having herbicidal activity” (Monsanto Technology LLC, priority 1999, dated 2002).

Assay [1] relates to BRAPP (broadleaf signalgrass). The experiment in a line: Pre-plant incorporated (PPI) herbicidal activity, warm season. The format is in vivo, Brachiaria platyphylla. The conditions noted are these: for PPI activity GR80, BRAPP: pre-plant incorporated, lowest tested rate with 80% or greater inhibition, about 14 days. Here is the method:
(§1) In another set of tests, the pre-plant incorporated (PPI) activity of compounds of this invention was evaluated on the same species as for the pre-emergence tests described above. In the PPI tests the following procedure, designed to simulate PPI application, was used.
(§2) A pre-prepared topsoil mixture (described above) was placed in a pot and compacted to a depth of 1.0 to 1.25 cm from the top of the pot. Seeds of each of several monocotyledonous and dicotyledonous annual plant species were placed on top of the soil. A sufficient quantity of soil to cover the seeds and level fill the pot was weighed into an open container. A known amount of the test compound was dissolved or suspended in an organic solvent and applied by spraying to this cover soil. The cover soil was thoroughly mixed to distribute the test compound throughout the cover soil, and was then applied as a cover layer over the seeds. Untreated soil was used as a cover layer for control pots. After treatment the plants were placed in a greenhouse where they received 0.64 cm of overhead irrigation. All subsequent watering consisted of a light overhead mist and/or subirrigation as needed for germination and growth. Tables 9 and 10 below relate to warm season plant species which were placed after pre-emergence treatment in a greenhouse with a 30/21° C. day/night temperature regime. Tables 11 and 12 below relates to cool season plant species placed after pre-emergence treatment in a greenhouse or growth chamber with an 18/13° C. day/night temperature regime. Only the compounds of Examples 1, 6, 8, 11, 13 and 15-20 were included in PPI tests.
(§3) Approximately 14 days after planting and treating, the plants were observed and herbicidal efficacy recorded as percent inhibition by comparison with untreated plants.

For assay [2], the system named is VERPE (creeping speedwell). The experiment in a line: Pre-emergence herbicidal activity, cool season. The format is in vivo, Veronica persicaria. The settings on record: lowest tested rate with 80% or greater inhibition; rates 300, 100, 30, 10 g/ha; about 14 days. The procedure, abridged: (§4)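 Seeds sown in sterilised fertilised topsoil received surface-applied compound in 50:50 acetone/water, typically at 300, 100, 30 and 10 g/ha, then greenhouse-grown at 30/21° C (warm-season species) or 18/13° C (cool-season species). Percent inhibition versus untreated plants was scored at about 14 days, giving GR80; an asterisk marks activity short of 80% at the top rate.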

Assay [3] deals with POLCO (wild buckwheat). The experiment in a line: Pre-emergence herbicidal activity, cool season. The assay is classed as in vivo, Polygonum convolvulus. The conditions noted are these: lowest tested rate with 80% or greater inhibition; rates 300, 100, 30, 10 g/ha; about 14 days. The procedure, abridged: as §4
For assay [4], the system named is SOLNI (black nightshade). The experiment in a line: Pre-plant incorporated (PPI) herbicidal activity, warm season. The format is in vivo, Solanum nigrum. The settings on record: for PPI activity (GR80) SOLNI: pre-plant incorporated, GR80 = lowest tested rate with 80% or greater inhibition, approx. 14 days after treating, 30/21° C. Here is the method:
as §1, §2, §3

Assay [5] deals with POAAN (annual bluegrass). The experiment in a line: Pre-plant incorporated (PPI) herbicidal activity, cool season. The assay is classed as in vivo, Poa annua. The settings on record: weed, PPI application. Here is the method: as §1, §2, §3
Assay [6] concerns SETVI (green foxtail). Described as above. The assay is classed as in vivo, Setaria viridis. The conditions noted are these: for PPI activity GR80, SETVI: pre-plant incorporated, lowest tested rate with 80% or greater inhibition, about 14 days; for Percent inhibition SETVI: weed, PPI application. Here is the method: as §1, §2, §3
Assay [7] concerns CIRAR (canada thistle (seedling)). The experiment in a line: Pre-emergence herbicidal activity, warm season. The assay is classed as in vivo, Cirsium arvense. The settings on record: GR80 = lowest tested rate (300, 100, 30, 10 g/ha) with 80% or greater inhibition; approx. 14 days after treating; 30/21° C. The method, boiled down: as §4
In assay [8] the test system is SORHA (johnsongrass (seedling)). Description: Pre-emergence herbicidal activity, warm season. The format is in vivo, Sorghum halepense. The conditions noted are these: for Pre-emergence activity (GR80) SORHA: GR80 = lowest tested rate (300, 100, 30, 10 g/ha) with 80% or greater inhibition, approx. 14 days after treating, 30/21° C. The method, boiled down: as §4
Assay [9] has as its system SOLNI (black nightshade). The experiment in a line: Pre-emergence herbicidal activity, warm season. The format is in vivo, Solanum nigrum. The conditions noted are these: for Pre-emergence activity (GR80) SOLNI: GR80 = lowest tested rate (300, 100, 30, 10 g/ha) with 80% or greater inhibition, approx. 14 days after treating, 30/21° C. The procedure, abridged:
as §4

Assay [10] relates to AGSST (creeping bentgrass). The experiment in a line: Pre-emergence herbicidal activity, cool season. The assay is classed as in vivo, Agrostis stolonifera. The conditions noted are these: GR80 = lowest tested rate (300, 100, 30, 10 g/ha) with 80% or greater inhibition; approx. 14 days after treating; 18/13° C. The procedure, abridged: as §4

Regarding `CCN(CC)C(=O)n1cnc(S(=O)(=O)C(F)(F)SCC(=O)OC)n1` [Example 11], the “Percent inhibition BRAPP” value is recorded as 0% in assay [1] (PPI application, 10 g/ha); 0% in assay [1] (PPI application, 30 g/ha); 60% in assay [1] (PPI application, 100 g/ha); 100% in assay [1] (PPI application, 300 g/ha); 100% in assay [1] (PPI application, 900 g/ha). For the same molecule, the “PPI activity GR80, BRAPP” value in assay [1] is reported as 300 g/ha. The “Pre-emergence activity GR80, VERPE” value in assay [2] was 100 g/ha. In addition, the “Pre-emergence activity GR80, POLCO” value in [3] is “[empty]”. Moreover, the “Percent inhibition SOLNI” value in assay [4] (PPI application, 10 g/ha) is reported as 0%; in [4] (PPI application, 30 g/ha) it was 0%; in [4] (PPI application, 100 g/ha), 30%; in [4] (PPI application, 300 g/ha), 50%; in assay [4] (PPI application, 900 g/ha) it was 100%. In addition, the “PPI activity (GR80) SOLNI” value in [4] is listed as 300 g/ha. Also, the “Percent inhibition POAAN” value in [5] (10 g/ha) is recorded as 0%; in assay [5] (30 g/ha), 0%; in [5] (100 g/ha), 0%; in [5] (300 g/ha), 0%; in [5] (900 g/ha) it was 70%. Moreover, the “PPI activity GR80, SETVI” value in assay [6] came to 300 g/ha. Further, the “Percent inhibition SETVI” value in assay [6] (10 g/ha) came to 80%; in assay [6] (30 g/ha) it was 90%; in [6] (100 g/ha), 99%; in [6] (300 g/ha) it was 95%; in assay [6] (900 g/ha), 100%. For the same molecule, in assay [7], the “Pre-emergence activity (GR80) CIRAR” value came to 300 g/ha. For the same molecule, in assay [8], the “Pre-emergence activity (GR80) SORHA” value was found to be 300 g/ha. Also, the “Pre-emergence activity (GR80) SOLNI” value in [9] stood at 300 g/ha.
Turning to `CCN(CC)C(=O)n1cnc(S(=O)(=O)C(F)(F)C(F)(F)SC)n1` [Example 14], the “Pre-emergence activity GR80, VERPE” value in assay [2] was 300 g/ha. Further, the “Pre-emergence activity GR80, POLCO” value in assay [3] is on record as 300 g/ha. In assay [10], the “Pre-emergence activity (GR80) AGSST” value is listed as 30 g/ha. The “Pre-emergence activity (GR80) CIRAR” value in assay [7] is 300 g/ha. Also, the “Pre-emergence activity (GR80) SORHA” value in assay [8] is 300 g/ha. Moreover, in assay [9], the “Pre-emergence activity (GR80) SOLNI” value is 300 g/ha.
`CCN(CC)C(=O)n1cnc(S(=O)(=O)C(F)F)n1` [Example 15, 1-(N,N-diethylcarbamoyl)-3-(difluoromethylsulfonyl)-1,2,4-triazole]: the inhibition (commonly the change of the read-out against control, counted positive when it falls) at 10 g/ha in assay [1] (Urochloa platyphylla, PPI application, 10 g/ha, read-out: Percent inhibition BRAPP) is 0%; in [4] (Solanum nigrum, PPI application, 10 g/ha, read-out: Percent inhibition SOLNI), 0%; in assay [8] (Sorghum halepense, pre-emergence application, 10 g/ha, read-out: Percent inhibition, weed SORHA), 0%; in assay [9] (Solanum nigrum, pre-emergence application, 10 g/ha, read-out: Percent inhibition, weed SOLNI), 0%. Besides, the inhibition at 30 g/ha stood at 0% in assay [1] (Urochloa platyphylla, PPI application, 30 g/ha, read-out: Percent inhibition BRAPP); 0% in assay [4] (Solanum nigrum, PPI application, 30 g/ha, read-out: Percent inhibition SOLNI); 0% in [8] (Sorghum halepense, pre-emergence application, 30 g/ha, read-out: Percent inhibition, weed SORHA); 0% in assay [9] (Solanum nigrum, pre-emergence application, 30 g/ha, read-out: Percent inhibition, weed SOLNI). Moreover, the inhibition at 100 g/ha came out at 95% in assay [1] (Urochloa platyphylla, PPI application, 100 g/ha, read-out: Percent inhibition BRAPP); 20% in assay [4] (Solanum nigrum, PPI application, 100 g/ha, read-out: Percent inhibition SOLNI); 30% in [8] (Sorghum halepense, pre-emergence application, 100 g/ha, read-out: Percent inhibition, weed SORHA); 0% in [9] (Solanum nigrum, pre-emergence application, 100 g/ha, read-out: Percent inhibition, weed SOLNI). In addition, the inhibition at 300 g/ha turned out to be 99% in [1] (Urochloa platyphylla, PPI application, 300 g/ha, read-out: Percent inhibition BRAPP); 100% in assay [4] (Solanum nigrum, PPI application, 300 g/ha, read-out: Percent inhibition SOLNI); 95% in assay [8] (Sorghum halepense, pre-emergence application, 300 g/ha, read-out: Percent inhibition, weed SORHA); 0% in [9] (Solanum nigrum, pre-emergence application, 300 g/ha, read-out: Percent inhibition, weed SOLNI). Moreover, the inhibition at 900 g/ha in assay [1] (Urochloa platyphylla, PPI application, 900 g/ha, read-out: Percent inhibition BRAPP) turned out to be 100%; in assay [4] (Solanum nigrum, PPI application, 900 g/ha, read-out: Percent inhibition SOLNI), 99%; in assay [8] (Sorghum halepense, pre-emergence application, 900 g/ha, read-out: Percent inhibition, weed SORHA) it was 100%; in assay [9] (Solanum nigrum, pre-emergence application, 900 g/ha, read-out: Percent inhibition, weed SOLNI), 0%. For the same molecule, the “PPI activity GR80, BRAPP” value in [1] turned out to be 100 g/ha. Besides, the “PPI activity (GR80) SOLNI” value in assay [4] is recorded as 100 g/ha. For the same molecule, the “PPI activity GR80, SETVI” value in assay [6] is given as 100 g/ha. Besides, the “Pre-emergence activity (GR80) CIRAR” value in [7] worked out at 30 g/ha. Moreover, the “Pre-emergence activity (GR80) SORHA” value in assay [8] was 100 g/ha. In [9], the “Pre-emergence activity (GR80) SOLNI” value amounted to 100 g/ha.
